In patent publication US12297294B2, “Cortistatin analogues for the treatment of inflammatory and/or immune diseases” (BCN PEPTIDES, S.A., priority 2013, dated 2025):
Each block holds one molecule with its values, some of them ahead of it. Where a SMILES comes first, the peptide text is derived from it. Bridges are numbered along the chain shown (N, C = ends). [ ]: non-standard residue; d: D form. The star is where a group is joined. Phe(2,4,6-Me3) = Cc1cc(C)c(C[C@H](N)C(=O)O)c(C)c1; Phe(3,5-F2) = N[C@@H](Cc1cc(F)cc(F)c1)C(=O)O; Myristoyl = CCCCCCCCCCCCCC(=O)*; Octanoyl = CCCCCCCC(=O)*

Legend:
Raw 264 cells = test: Inflammatory response in vitro: LPS-stimulated Raw 264 cells, cytokines (ELISA) and NO (Griess); type: cell-based; conditions: LPS 1 μg/ml, peptide 100 nM, 24 hours; for NO (nitric oxide) level in supernatant: Griess test, basal 0.44; for IL-6 level in supernatant: basal 0; for TNFalpha level in supernatant: basal 0.48
Protocol: Raw 264 cells were cultured in complete DMEM medium until a confluence of 80% was reached. The cells were incubated either in the absence or presence of lipopolysaccharide (LPS, 1 μg/ml, from E. coli serotype 055:B5). The cells incubated in the absence of lipopolysaccharide were used as a reference (basal). The new cortistatin analogues were added at 100 nM concentration at the start of the culture. After 24 hours, the supernatants were collected and cytokine and nitric oxide levels were measured. The cytokine level (TNFalpha and IL-6) was established using a ELISA test. The quantity of nitric oxide (NO) was established using the Griess test. Equal volumes of supernatants from the culture (90 μl) and Griess reagents were mixed and absorbance was measured at 550 nm. The nitrite amount was calculated in relation to a standard NaNO2 curve.
For comparison, the values of cortistatin-14 (CST-14), somatostatin-14 (SOM-14) and three somatostatin analogues described in WO 2010/128098 A1 were evaluated: […]

T cells (splenocytes) = test: Immune response in vitro: anti-CD3 stimulated splenocyte T cells, proliferation and cytokines; type: cell-based, C57B1I/6 mice; conditions: anti-CD3 2 μg/ml, peptide 100 nM; for INFγ level in supernatant / IL-2 level in supernatant: 48 hours; for INFγ level in supernatant: activated 2.52, basal 0; for IL-2 level in supernatant: activated 3.22, basal 0.23; for proliferation ([3H]-thymidine incorporation): 72 hours, activated 9843, basal 640
Protocol: Splenocytes from 8 week old male C57B1I/6 mice were obtained after mechanical dissociation of cells, filtration through a nylon mesh and lysis of red blood cells. The splenocytes were incubated in complete DMEM medium until a density of 10^6 cells/ml. The non-adherent cells (formed in 80% by T cells) were used for measuring cytokines and for proliferation assays. The T cells were cultured in complete DMEM medium and stimulated with anti-CD3 antibodies (2 μg/ml) in the presence of different cortistatin analogues at a concentration of 100 nM. After 48 hours, the supernatants of the culture were isolated and the levels of cytokines (IFNγ and IL-2) were determined by using an ELISA test. In order to determine the effect of the different cortistatin analogues in proliferation, the cells were cultured for 72 hours and 0.5 μCi (0.0185 MBq)/well of [^3H]— thymidine was added for the last 8 hours of culture, the membranes were collected and the added [^3H]-Thymidine was measured using a scintillation counter.
For comparison, the values of cortistatin-14 (CST-14), somatostatin-14 (SOM-14) and three somatostatin analogues described in WO 2010/128098 A1 were determined: […]

[1] = Serum stability in 90% human serum at 37° C., RP-HPLC; type: in vitro ADME; conditions: for main metabolite in serum: loss of C-terminal Lys
Protocol: The new compounds were incubated with 90% human serum at 37° C. Aliquots were extracted at different incubation times. Methanol was added to precipitate the proteins from the serum, it was centrifuged and the supernatant was subject to a chromatographic analysis using RP-HPLC (Gradient: 20-80% B in 30 min, B=0.07% TFA in acetonitrile). The disappearance of the initial product was analyzed using the area corresponding to the initial product and half-life time was calculated.

[2] = molecular target: T1, somatostatin receptor sstr1 (UniProt P30872 1-391, limits assumed); test: radioligand competition vs 125I-Tyr11-somatostatin 14, CHO-K1 cells expressing sstr1, 0.1 nM to 10 uM
T1 construct: whole, on cells
Protocol: (§1) CHO-K1 cells in which each of the 5 somatostatin receptors (sstr1-sstr5) were expressed independently were used. […] The radioactivity obtained in the absence of somatostatin-14 was considered as the total binding and that obtained in the presence of 1 μM of somatostatin-14 was considered as the non-specific bond. The specific binding was considered as the difference between the complete binding and the non-specific binding.

[3] = molecular target: T2, somatostatin receptor sstr2 (UniProt P30874 1-369, limits assumed); test: radioligand competition vs 125I-Tyr11-somatostatin 14, CHO-K1 cells expressing sstr2, 0.1 nM to 10 uM
T2 construct: whole, on cells
Protocol: as §1

[4] = molecular target: T3, somatostatin receptor sstr3 (UniProt P32745 1-418, limits assumed); test: radioligand competition vs 125I-Tyr11-somatostatin 14, CHO-K1 cells expressing sstr3, 0.1 nM to 10 uM
T3 construct: whole, on cells
Protocol: as §1

[5] = molecular target: T4, somatostatin receptor sstr5 (UniProt P35346 1-364, limits assumed); test: radioligand competition vs 125I-Tyr11-somatostatin 14, CHO-K1 cells expressing sstr5, 0.1 nM to 10 uM
T4 construct: whole, on cells
Protocol: as §1

T1 sequence (P30872 whole entry): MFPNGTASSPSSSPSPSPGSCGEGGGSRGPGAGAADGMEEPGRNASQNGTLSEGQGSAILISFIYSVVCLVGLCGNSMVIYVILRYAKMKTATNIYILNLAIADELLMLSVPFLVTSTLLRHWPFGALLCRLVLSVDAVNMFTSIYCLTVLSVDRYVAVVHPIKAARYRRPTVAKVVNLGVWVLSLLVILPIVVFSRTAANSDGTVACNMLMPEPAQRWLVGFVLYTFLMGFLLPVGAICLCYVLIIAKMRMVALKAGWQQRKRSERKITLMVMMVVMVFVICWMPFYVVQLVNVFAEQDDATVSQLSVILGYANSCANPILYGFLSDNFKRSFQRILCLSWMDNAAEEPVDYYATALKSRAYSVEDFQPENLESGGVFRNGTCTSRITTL
T3 sequence (P32745 whole entry): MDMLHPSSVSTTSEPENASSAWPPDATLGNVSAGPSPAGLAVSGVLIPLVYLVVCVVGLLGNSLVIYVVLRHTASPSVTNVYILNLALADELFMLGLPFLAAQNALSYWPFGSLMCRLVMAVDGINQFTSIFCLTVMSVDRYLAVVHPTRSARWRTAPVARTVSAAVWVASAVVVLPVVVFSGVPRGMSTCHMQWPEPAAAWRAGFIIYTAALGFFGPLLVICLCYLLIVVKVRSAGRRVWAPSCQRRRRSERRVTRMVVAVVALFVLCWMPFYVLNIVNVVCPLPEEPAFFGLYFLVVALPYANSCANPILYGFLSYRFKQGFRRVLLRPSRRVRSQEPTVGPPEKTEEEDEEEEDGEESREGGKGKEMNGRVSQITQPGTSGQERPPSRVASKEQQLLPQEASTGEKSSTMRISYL
T4 sequence (P35346 whole entry): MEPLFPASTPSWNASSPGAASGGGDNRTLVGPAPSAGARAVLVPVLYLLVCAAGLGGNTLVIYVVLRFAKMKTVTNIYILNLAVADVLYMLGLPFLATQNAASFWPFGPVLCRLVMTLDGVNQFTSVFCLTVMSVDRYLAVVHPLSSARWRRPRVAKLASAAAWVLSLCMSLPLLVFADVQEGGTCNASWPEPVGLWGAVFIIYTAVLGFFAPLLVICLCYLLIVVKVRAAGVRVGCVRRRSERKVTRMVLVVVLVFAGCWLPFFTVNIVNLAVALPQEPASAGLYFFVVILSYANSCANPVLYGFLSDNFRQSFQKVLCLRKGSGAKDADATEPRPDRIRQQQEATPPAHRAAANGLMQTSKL
T2 sequence (P30874 whole entry): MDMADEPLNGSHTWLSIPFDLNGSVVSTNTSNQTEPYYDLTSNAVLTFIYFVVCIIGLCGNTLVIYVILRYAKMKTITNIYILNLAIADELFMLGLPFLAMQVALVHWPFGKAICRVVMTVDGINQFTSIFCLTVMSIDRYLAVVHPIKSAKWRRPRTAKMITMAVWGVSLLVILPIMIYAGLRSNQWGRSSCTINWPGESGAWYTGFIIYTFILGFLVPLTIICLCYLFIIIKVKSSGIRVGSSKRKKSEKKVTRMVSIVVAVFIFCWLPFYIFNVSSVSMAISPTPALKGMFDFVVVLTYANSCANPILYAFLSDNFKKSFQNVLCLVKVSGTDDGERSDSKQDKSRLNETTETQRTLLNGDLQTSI

Molecule: C[C@@H](O)[C@@H]1NC(=O)[C@H](CCCCN)NC(=O)[C@H](Cc2c[nH]c3ccccc23)NC(=O)[C@H](Cc2ccccc2)NC(=O)[C@H](Cc2ccccc2)NC(=O)[C@H](CC(N)=O)NC(=O)[C@H](CCCCN)NC(=O)[C@@H](NC(=O)[C@@H]2CCCN2)CSSC[C@@H](C(=O)N[C@@H](CCCCN)C(=O)O)NC(=O)[C@H](CO)NC(=O)[C@H](CO)NC(=O)[C@H](Cc2ccccc2)NC1=O [CST-14] (H-PCKNFFWKTFSSCK-OH; disulfide 2-13)
NO (nitric oxide) level in supernatant (Raw 264 cells): 3.08 ng/mL
IL-6 level in supernatant (Raw 264 cells): 3.78 ng/mL
TNFalpha level in supernatant (Raw 264 cells): 3.17 ng/mL
INFγ level in supernatant (T cells (splenocytes)): 1.13 ng/mL
IL-2 level in supernatant (T cells (splenocytes)): 1.52 ng/mL
proliferation ([3H]-thymidine incorporation) (T cells (splenocytes)): 5500
main metabolite in serum [1]: compound 14

Molecule: CCCCCCCC(=O)N1CCC[C@H]1C(=O)N[C@H]1CSSC[C@@H](C(=O)N[C@@H](CCCCN)C(=O)O)NC(=O)[C@H](CO)NC(=O)[C@H]([C@@H](C)O)NC(=O)[C@H](Cc2ccccc2)NC(=O)[C@H]([C@@H](C)O)NC(=O)[C@H](CCCCN)NC(=O)[C@@H](Cc2c[nH]c3ccccc23)NC(=O)[C@H](Cc2ccccc2)NC(=O)[C@H](Cc2c(C)cc(C)cc2C)NC(=O)[C@H](CC(N)=O)NC(=O)[C@H](CCCCN)NC1=O [Compound 4, Octanoyl-L-Pro-c[L-Cys-L-Lys-L-Asn-L-Msa-L-Phe-D-Trp-L-Lys-L-Thr-L-Phe-L-Thr-L-Ser-L-Cys-]-L-Lys-OH]
half-life [1]: 0.35 h
main metabolite in serum [1]: compound 5

Molecule: CCCCCCCC(=O)N1CCC[C@H]1C(=O)N[C@H]1CSSC[C@@H](C(=O)O)NC(=O)[C@H](CO)NC(=O)[C@H]([C@@H](C)O)NC(=O)[C@H](Cc2ccccc2)NC(=O)[C@H]([C@@H](C)O)NC(=O)[C@H](CCCCN)NC(=O)[C@@H](Cc2c[nH]c3ccccc23)NC(=O)[C@H](Cc2ccccc2)NC(=O)[C@H](Cc2c(C)cc(C)cc2C)NC(=O)[C@H](CC(N)=O)NC(=O)[C@H](CCCCN)NC1=O [Compound 5, Octanoyl-L-Pro-c[L-Cys-L-Lys-L-Asn-L-Msa-L-Phe-D-Trp-L-Lys-L-Thr-L-Phe-L-Thr-L-Ser-L-Cys]-OH]
half-life [1]: 35 h

Molecule: C[C@H](N)C(=O)NCC(=O)N[C@H]1CSSC[C@@H](C(=O)O)NC(=O)[C@H](CO)NC(=O)[C@H]([C@@H](C)O)NC(=O)[C@H](Cc2ccccc2)NC(=O)[C@H]([C@@H](C)O)NC(=O)[C@H](CCCCN)NC(=O)[C@@H](Cc2c[nH]c3ccccc23)NC(=O)[C@H](Cc2cc(F)cc(F)c2)NC(=O)[C@H](Cc2ccccc2)NC(=O)[C@H](CC(N)=O)NC(=O)[C@H](CCCCN)NC1=O [Compound 6, H-L-Ala-Gly-c[L-Cys-L-Lys-L-Asn-L-Phe-L-Dfp-D-Trp-L-Lys-L-Thr-L-Phe-L-Thr-L-Ser-L-Cys]-OH]
half-life [1]: 3.8 h

Molecule: H2N-AGc[CKNFFWKTFTSC]-OH (AGCKNFFWKTFTSC; disulfide cyclised; Somatostatin-14; DISULFID (3)..(14)) [SST-14, endogenous peptide somatostatin-14]
NO (nitric oxide) level in supernatant (Raw 264 cells): 4.32 ng/mL
IL-6 level in supernatant (Raw 264 cells): 4.2 ng/mL
TNFalpha level in supernatant (Raw 264 cells): 5.21 ng/mL
INFγ level in supernatant (T cells (splenocytes)): 2.31 ng/mL
IL-2 level in supernatant (T cells (splenocytes)): 3.14 ng/mL
proliferation ([3H]-thymidine incorporation) (T cells (splenocytes)): 9936

B1: Compound 10: Myristoyl-L-Asp-L-Arg-L-Met-L-Pro-c[L-Cys-L-Arg-L-Asn-L-Msa-L-Phe-L-Trp-L-Lys-L-Thr-L-Phe-L-Thr-L-Ser-L-Cys]-L-Lys-OH (peptide)
peptide: Myristoyl-DRMPCRN[Phe(2,4,6-Me3)]FWKTFTSCK-OH
modifications: disulfide 5-16
SMILES: CCCCCCCCCCCCCC(=O)N[C@@H](CC(=O)O)C(=O)N[C@@H](CCCNC(=N)N)C(=O)N[C@@H](CCSC)C(=O)N1CCC[C@H]1C(=O)N[C@H]1CSSC[C@@H](C(=O)N[C@@H](CCCCN)C(=O)O)NC(=O)[C@H](CO)NC(=O)[C@H]([C@@H](C)O)NC(=O)[C@H](Cc2ccccc2)NC(=O)[C@H]([C@@H](C)O)NC(=O)[C@H](CCCCN)NC(=O)[C@H](Cc2c[nH]c3ccccc23)NC(=O)[C@H](Cc2ccccc2)NC(=O)[C@H](Cc2c(C)cc(C)cc2C)NC(=O)[C@H](CC(N)=O)NC(=O)[C@H](CCCNC(=N)N)NC1=O
percentage of inhibition of specific binding [2]: > 50%
percentage of inhibition of specific binding [3]: > 50%
percentage of inhibition of specific binding [4]: > 50%
percentage of inhibition of specific binding [5]: > 50%

Now from value to molecule:

percentage of inhibition of specific binding [2]: > 50%
percentage of inhibition of specific binding [3]: > 50%
percentage of inhibition of specific binding [4]: > 50%
percentage of inhibition of specific binding [5]: > 50%
B2: Compound 9: H-L-Asp-L-Arg-L-Met-L-Pro-c[L-Cys-L-Arg-L-Asn-L-Msa-L-Phe-L-Trp-L-Lys-L-Thr-L-Phe-L-Thr-L-Ser-L-Cys]-L-Lys-OH (peptide)
peptide: H-DRMPCRN[Phe(2,4,6-Me3)]FWKTFTSCK-OH
modifications: disulfide 5-16
SMILES: CSCC[C@H](NC(=O)[C@H](CCCNC(=N)N)NC(=O)[C@@H](N)CC(=O)O)C(=O)N1CCC[C@H]1C(=O)N[C@H]1CSSC[C@@H](C(=O)N[C@@H](CCCCN)C(=O)O)NC(=O)[C@H](CO)NC(=O)[C@H]([C@@H](C)O)NC(=O)[C@H](Cc2ccccc2)NC(=O)[C@H]([C@@H](C)O)NC(=O)[C@H](CCCCN)NC(=O)[C@H](Cc2c[nH]c3ccccc23)NC(=O)[C@H](Cc2ccccc2)NC(=O)[C@H](Cc2c(C)cc(C)cc2C)NC(=O)[C@H](CC(N)=O)NC(=O)[C@H](CCCNC(=N)N)NC1=O

percentage of inhibition of specific binding [2]: > 50%
percentage of inhibition of specific binding [3]: > 50%
percentage of inhibition of specific binding [4]: > 50%
percentage of inhibition of specific binding [5]: > 50%
B3: Compound 5: Octanoyl-L-Pro-c[L-Cys-L-Lys-L-Asn-L-Msa-L-Phe-D-Trp-L-Lys-L-Thr-L-Phe-L-Thr-L-Ser-L-Cys]-OH (peptide)
peptide: Octanoyl-PCKN[Phe(2,4,6-Me3)]F[dW]KTFTSC-OH
modifications: disulfide 2-13
SMILES: CCCCCCCC(=O)N1CCC[C@H]1C(=O)N[C@H]1CSSC[C@@H](C(=O)O)NC(=O)[C@H](CO)NC(=O)[C@H]([C@@H](C)O)NC(=O)[C@H](Cc2ccccc2)NC(=O)[C@H]([C@@H](C)O)NC(=O)[C@H](CCCCN)NC(=O)[C@@H](Cc2c[nH]c3ccccc23)NC(=O)[C@H](Cc2ccccc2)NC(=O)[C@H](Cc2c(C)cc(C)cc2C)NC(=O)[C@H](CC(N)=O)NC(=O)[C@H](CCCCN)NC1=O

percentage of inhibition of specific binding [2]: > 50%
percentage of inhibition of specific binding [3]: > 50%
percentage of inhibition of specific binding [4]: > 50%
percentage of inhibition of specific binding [5]: > 50%
Molecule: H-PCKN[Phe(3,5-F2)]FWKT[Phe(2,4,6-Me3)]SSCK-NH2 (disulfide 2-13)
